Literature values in patent US20260024640A1, “SYSTEM AND METHOD I[…] COMPUTER FOR THE CONTROL OF […] THROUGH FUZZY CONTROL” (SmartTIVA Inc, priority 2022, published 2026).
Where two headings read alike, the source gives them in different places.

Assays:
[1] = Marsh
[2] = Schnider
[3] = General Model (LBM calculated by weight, age, gender)

For `CC(C)c1cccc(C(C)C)c1O` [Propofol], the V1 ([1]; 70 kg) is given as 15.9 L, the k21 ([1]; 70 kg) is given as 0.055 min⁻¹ and the k31 ([1]; 70 kg) is given as 0.0033 min⁻¹. The keo ([1]; 70 kg) was 0.26 min⁻¹, the V1 ([1]; General Model) was 0.228 L/kg and the k21 ([1]; General Model) was 0.055 min⁻¹. The k31 ([1]; General Model) was 0.0033 min⁻¹, the keo ([1]; General Model) was 0.26 min⁻¹ and the V1 ([2]; 70 kg, male, height: 170 cm) was 4.27 L. For the same compound, the k13 ([2]; 70 kg, male, height: 170 cm) was 0.196 min⁻¹, the k21 ([2]; 70 kg, male, height: 170 cm) was 0.067 min⁻¹ and the keo ([2]; 70 kg, male, height: 170 cm) was 0.456 min⁻¹. The V1 [2, 3] was 4.27 L, the k13 [2, 3] was 0.196 min⁻¹ and the keo [2, 3] was 0.456 min⁻¹.
